Experimental data reported in the supplement of paper PMC7224384.

Assays:
MDA-MB-453 [1] = assay: drug sensitivity score (DSS), in combination with BLU9931 (DSS (weighted AUC score)); higher = more sensitive (stronger viability decrease); extreme values may be limits of the assay; conditions: BLU9931 100 nM; 72 h
Outline: (§1)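 Compounds from the FIMM Oncology set were predispensed in singlicate at five 10-fold dilutions (10,000-fold range) on 384-well plates. Each well then received 2000 MDA-MB-453 cells in medium with or without an FGFR4 inhibitor (100 nM final) and was kept at 37 °C, 5% CO2. Cellular ATP was read with CellTiterGlo 2.0 after 72 h and normalised per plate to percent viability from control wells. The drug sensitivity score is a weighted area under a four-parameter logistic fit.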

MDA-MB-453 [2] = assay: drug sensitivity score (DSS), single agent (DSS (weighted AUC score)); higher = more sensitive (stronger viability decrease); extreme values may be limits of the assay; conditions: BLU9931 0 nM; 72 h
Outline: as §1

Compound | drug sensitivity score (MDA-MB-453 [1]) | drug sensitivity score (MDA-MB-453 [2])
O=C(O)CC1CC(c2ccccc2)=NO1 (centres undefined) [VGX-1027] | 0 | 0
CC(C)Oc1ccc(-c2nn([C@@H](C)c3oc4ccc(F)cc4c(=O)c3-c3cccc(F)c3)c3ncnc(N)c23)cc1F [TGR-1202] | 0 | 0.7
CNC(=O)c1nn(C)c2c1C(C)(C)Cc1cnc(Nc3ccc(N4CCN(C)CC4)cc3)nc1-2 [Milciclib] | 7.5 | 8.3
NCCNc1ccc(NCCN)c2c1C(=O)c1ccncc1C2=O [Pixantrone] | 1 | 1
CC[C@@H]1CN(C(=O)NCC(F)(F)F)C[C@@H]1c1cnc2cnc3[nH]ccc3n12 [Upadacitinib] | 0 | 0.9
CCNC(=O)c1noc(-c2cc(C(C)C)c(O)cc2O)c1-c1ccc(CN2CCOCC2)cc1 [Luminespib] | 19.7 | 18.1
CNC(=O)c1ccccc1Sc1ccc2c(/C=C/c3ccccn3)n[nH]c2c1 [Axitinib] | 0.3 | 2.2
Cn1cc(-c2ccc(F)c(C(F)(F)F)c2)nc1C1CCN(c2ncnc3[nH]ncc23)CC1 | 3.9 | 1.8
CC(C)N(C[C@H]1O[C@@H](n2cnc3c(N)ncnc32)[C@H](O)[C@@H]1O)[C@H]1C[C@@H](CCc2nc3cc(C(C)(C)C)ccc3[nH]2)C1 [Pinometostat] | 0 | 0
CC1(C)C(C(=O)Nc2ccc(S(=O)(=O)c3ccc(NC(=O)C4C(C)(C)C4(C)C)cc3)cc2)C1(C)C [BRD7116] | 3.9 | 4.5
C=C1C[C@@H]2CC[C@@]34C[C@H]5O[C@H]6[C@@H](O3)[C@H]3O[C@H](CC[C@@H]3O[C@H]6[C@H]5O4)CC(=O)C[C@@H]3[C@@H](OC)[C@@H](C[C@H](O)CN)O[C@H]3C[C@H]3O[C@@H](CC[C@@H]1O2)C[C@@H](C)C3=C [Eribulin] | 13.4 | 15.5
C[C@@H]1CN(CC(=O)Nc2ccc3c(c2)Cc2cccc(-c4cc(=O)cc(N5CCOCC5)o4)c2S3)C[C@H](C)O1 | 3.4 | 3.1
CN(C)c1cc2c(cc1Sc1nc3c(N)nccc3n1CCNCC(C)(C)C)OCO2 [CUDC-305] | 15.9 | 17.6
NC(=O)c1cccc2cn(-c3ccc([C@@H]4CCCNC4)cc3)nc12 [Niraparib] | 1.3 | 2.3
CC[C@@]1(O)C(=O)OCc2c1cc1n(c2=O)Cc2cc3c(CN(C)C)c(O)ccc3nc2-1 [Topotecan] | 12.5 | 14.7
O=c1ncn2nc(Sc3ccc(F)cc3F)ccc2c1-c1c(Cl)cccc1Cl [Neflamapimod] | 0 | 0
NCC(=O)Nc1ccc(-n2nc(C(F)(F)F)cc2-c2ccc3c(ccc4ccccc43)c2)cc1 | 0 | 2.1
Cc1c(-c2ccc(N3CCc4cccc(C(=O)Nc5nc6ccccc6s5)c4C3)nc2C(=O)O)cnn1CC12CC3CC(CC(C3)C1)C2 | 5.4 | 1.4
CC(=O)OC[C@H]1O[C@@H]([S-])[C@H](OC(C)=O)[C@@H](OC(C)=O)[C@@H]1OC(C)=O.CCP(CC)CC.[Au+] [Auranofin] | 8.8 | 8.9

Compound | drug sensitivity score (MDA-MB-453 [1]) | drug sensitivity score (MDA-MB-453 [2])
CCCCNc1ncc(C(=O)NCc2ccc(-n3ccnc3)cc2)c(NC2CCC(O)CC2)n1 (centres undefined) [UNC2881] | 0 | 0
CCNC(=O)C[C@@H]1N=C(c2ccc(Cl)cc2)c2cc(OC)ccc2-n2c(C)nnc21 [Molibresib] | 9.8 | 10
CC(C)Oc1ccc(C(=O)N[C@H](CNC(=O)CN(C)C)Cc2ccc(-c3cn4cccc([C@H](C)O)c4n3)cc2)cc1Cl | 8.8 | 14.3
O=C(c1ccc(F)c(F)c1Nc1ccc(I)cc1F)N1CC(O)([C@@H]2CCCCN2)C1 [Cobimetinib] | 0.3 | 1.7
Cc1cccc(-c2[nH]c(CNc3ccccc3F)nc2-c2ccc3ncnn3c2)n1 [TEW-7197] | 1.8 | 5.2
Cc1sc2c(c1C)C(c1ccc(Cl)cc1)=N[C@@H](CC(=O)Nc1ccc(O)cc1)c1nnc(C)n1-2 [Birabresib] | 15.2 | 15.2
COc1cccc2c1c(O)c(C(=O)N(C)c1ccc(C(F)(F)F)cc1)c(=O)n2C [Tasquinimod] | 1.4 | 2.9
CCS(=O)(=O)c1cccc(-c2cc(C(=O)NC3CCN(C)CC3)c(C)c3[nH]c4ncc(C)cc4c23)c1 [TAK-901] | 3 | 2.7
CN1CCN(c2nc(C3=C(c4c[nH]c5ccccc45)C(=O)NC3=O)c3ccccc3n2)CC1 [Sotrastaurin] | 1 | 2.5
Cn1cc(-c2cnn3c(N)c(Br)c([C@@H]4CCCNC4)nc23)cn1 [MK-8776] | 1.3 | 1.1
c1cn2cc(-c3ccc4cn[nH]c4c3)nc(Nc3ccc(N4CCOCC4)cc3)c2n1 [Entospletinib] | 0 | 0
COc1cc2c(NC3CCN(C(C)C)CC3)nc(C3CCCCC3)nc2cc1OCCCN1CCCC1 [UNC0638] | 4.9 | 0
CS(=O)(=O)N1CCN(Cc2cc3nc(-c4cccc5[nH]ncc45)nc(N4CCOCC4)c3s2)CC1 [Pictilisib] | 17.4 | 16.6
CN(C)CCCOc1ccc(-c2ccc3ncc4c(c3c2)n(C2CCOCC2)c(=O)n4C)cn1 [AZD0156] | 3 | 1.6
CN(C)CC#Cc1ccc(OCCCc2sc(N3CCc4cccc(C(=O)Nc5nc6ccccc6s5)c4C3)nc2C(=O)O)c(F)c1 | 12 | 6.6
CN(C)C[C@@H]1CCn2cc(c3ccccc32)C2=C(C(=O)NC2=O)c2cn(c3ccccc23)CCO1 [Ruboxistaurin] | 6.7 | 5.3
N#Cc1ccc(COC[C@H]2O[C@@H](n3c(NCc4ccc(Cl)c(Cl)c4)nc4c(N)ncnc43)[C@H](O)[C@@H]2O)cc1 | 4.2 | 4.9
CC(C)C[C@H](NC(=O)[C@H](CCc1ccccc1)NC(=O)CN1CCOCC1)C(=O)N[C@@H](Cc1ccccc1)C(=O)N[C@@H](CC(C)C)C(=O)[C@@]1(C)CO1 [Carfilzomib] | 22.9 | 24.5
O=C(O)CC[C@H]1CC[C@@](c2cc(F)ccc2F)(S(=O)(=O)c2ccc(Cl)cc2)CC1 [MK-0752] | 0 | 0.1

Compound | drug sensitivity score (MDA-MB-453 [1]) | drug sensitivity score (MDA-MB-453 [2])
O=C(Nc1cccc(Nc2ncc(Br)c(NCCc3cnc[nH]3)n2)c1)N1CCCC1 [BX-912] | 3.8 | 4.5
Cc1cn(-c2cc(NC(=O)c3ccc(C)c(Nc4nccc(-c5cnccn5)n4)c3)cc(C(F)(F)F)c2)cn1 [Radotinib] | 2.4 | 0
COCC[n+]1c2c(n(Cc3cnccn3)c1C)C(=O)c1ccccc1C2=O [Sepantronium bromide] | 33.2 | 32.9
Nc1ncnc2c1nc(N)n2[C@@H]1O[C@H](CO)[C@@H](O)[C@H]1O [8-amino-adenosine] | 25 | 22.4
CCOC(=O)CCNc1cc(N2CCc3ccccc3CC2)nc(-c2ccccn2)n1 [GSK-J4] | 14 | 13.2
Cc1nc2cccc(N)c2c(=O)n1C1CCC(=O)NC1=O (centres undefined) [CC122] | 0 | 0
C[C@]1(O)C[C@@H](c2nc(-c3ccc4ccc(-c5ccccc5)nc4c3)c3c(N)nccn32)C1 [Linsitinib] | 1 | 3.6
CC(C)(C#N)c1cc(Cn2cncn2)cc(C(C)(C)C#N)c1 [Anastrozole] | 0 | 0
Cn1nnc2c(C(N)=O)ncn2c1=O [Temozolomide] | 0 | 0
N#CC1(c2ccc(NC(=O)c3cccnc3NCc3ccncc3)cc2)CCCC1 [Apatinib] | 0 | 0.7
O=C1c2c(O)ccc(O)c2C(=O)c2c(NCCNCCO)ccc(NCCNCCO)c21 [Mitoxantrone] | 5.1 | 4.5
Nc1ncn([C@@H]2O[C@H](CO)[C@@H](O)[C@H]2O)c(=O)n1 [Azacitidine] | 0.4 | 0.5
COc1cc2/c(=N/c3ccc(Br)cc3F)nc[nH]c2cc1OCC1CCN(C)CC1 [Vandetanib] | 0 | 0
Nc1nc(F)nc2c1ncn2[C@@H]1O[C@H](CO)[C@@H](O)[C@@H]1O [Fludarabine] | 0 | 0
Cc1cc2c(F)c(Oc3ncnn4cc(OC[C@@H](C)O)c(C)c34)ccc2[nH]1 [Brivanib] | 0 | 0
COc1cc(N2CCC(N3CCN(C)CC3)CC2)ccc1Nc1ncnc(Nc2ccccc2S(=O)(=O)C(C)C)n1 [ASP3026] | 0.3 | 0.8
O=C(O)c1ccc(O)c2ncccc12 [IOX-1] | 3.6 | 1.6
CNC(=O)c1cc(COc2nnc(Nc3ccc(Cl)cc3)c3ccoc23)ccn1 [Telatinib] | 0 | 1.2
Cc1cnc(Nc2ccc(OCCN3CCCC3)cc2)nc1Nc1cccc(S(=O)(=O)NC(C)(C)C)c1 [Fedratinib] | 6.3 | 8.3
